# The source made the active and inactive calls. Cut-off read from the data, not from the text of the source, for most assays here: actives have a measured EC50 and inactives only a lower limit.
# Columns and labels:
# Protein skinhead-1 = target: T1, Protein skinhead-1 (Caenorhabditis elegans, UniProt P34707); assay type: functional
# T1 sequence (P34707 whole entry): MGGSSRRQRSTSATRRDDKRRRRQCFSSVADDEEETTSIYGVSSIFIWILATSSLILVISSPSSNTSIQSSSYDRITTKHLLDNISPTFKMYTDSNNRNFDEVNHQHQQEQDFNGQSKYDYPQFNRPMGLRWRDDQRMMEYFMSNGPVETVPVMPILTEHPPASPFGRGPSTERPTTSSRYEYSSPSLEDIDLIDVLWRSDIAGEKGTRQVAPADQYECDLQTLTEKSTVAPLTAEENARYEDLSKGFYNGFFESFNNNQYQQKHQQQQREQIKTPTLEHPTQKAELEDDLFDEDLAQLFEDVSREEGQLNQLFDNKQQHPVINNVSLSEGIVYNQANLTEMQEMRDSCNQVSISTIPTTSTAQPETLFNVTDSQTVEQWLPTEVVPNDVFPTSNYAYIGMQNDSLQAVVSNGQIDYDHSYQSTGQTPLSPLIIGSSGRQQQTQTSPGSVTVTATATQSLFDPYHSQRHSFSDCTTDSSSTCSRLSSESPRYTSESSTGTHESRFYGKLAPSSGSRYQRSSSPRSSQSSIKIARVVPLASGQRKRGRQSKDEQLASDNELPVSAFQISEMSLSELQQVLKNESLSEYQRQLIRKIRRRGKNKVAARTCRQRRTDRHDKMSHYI
# [1] = target: T2, RNA-binding protein pos-1 (Caenorhabditis elegans, UniProt G5EF15); assay: inhibitors of POS-1/mex-3 RNA binding, dose response, biochemical, fluorescence polarization (AID 1964);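 note: purified POS-1 fused to maltose binding protein made in E. coli; potency of compounds blocking POS-1 binding to fluorescent RNA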
# T2 sequence (G5EF15 whole entry): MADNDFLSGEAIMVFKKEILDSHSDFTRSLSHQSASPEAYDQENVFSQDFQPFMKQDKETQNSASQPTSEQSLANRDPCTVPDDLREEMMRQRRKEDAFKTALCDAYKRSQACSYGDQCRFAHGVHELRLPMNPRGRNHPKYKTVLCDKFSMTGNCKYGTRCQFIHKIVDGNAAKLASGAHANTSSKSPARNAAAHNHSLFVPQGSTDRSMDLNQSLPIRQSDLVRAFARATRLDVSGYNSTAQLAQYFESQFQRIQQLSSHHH
# [2] = target: T3, Zinc finger protein mex-5 (Caenorhabditis elegans, UniProt Q9XUB2); assay: MEX-5/TCR-2 RNA interaction inhibitors, dose response, biochemical, C. elegans, fluorescence polarization (AID 1960)
# T3 sequence (Q9XUB2 whole entry): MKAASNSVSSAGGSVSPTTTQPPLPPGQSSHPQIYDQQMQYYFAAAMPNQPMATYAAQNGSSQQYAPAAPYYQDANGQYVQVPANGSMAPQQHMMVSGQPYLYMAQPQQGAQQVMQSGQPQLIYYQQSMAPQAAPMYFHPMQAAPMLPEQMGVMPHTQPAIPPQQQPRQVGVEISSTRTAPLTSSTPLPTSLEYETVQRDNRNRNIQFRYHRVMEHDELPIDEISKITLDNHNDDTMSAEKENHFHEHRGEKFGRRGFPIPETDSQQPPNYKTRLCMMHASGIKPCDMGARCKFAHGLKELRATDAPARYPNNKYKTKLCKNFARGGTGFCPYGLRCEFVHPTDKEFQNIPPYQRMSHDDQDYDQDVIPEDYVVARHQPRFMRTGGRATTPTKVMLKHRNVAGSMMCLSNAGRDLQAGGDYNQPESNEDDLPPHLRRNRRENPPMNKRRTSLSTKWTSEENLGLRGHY
# [3] = target: T4, Heat shock factor protein 1 (Mus musculus, UniProt P38532); assay: inhibition of MG132-induced HSE-luciferase signal, confirmation, cell-based, NIH3T3, luminescence, dose retest (AID 2382); assay type: functional;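 note: NIH3T3 fibroblasts with HSF1-driven luciferase reporter stressed by proteasome inhibitor MG132; luminescence from HSF1-driven luciferase expression after 8 hours of MG132 stress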
# T4 sequence (P38532 whole entry): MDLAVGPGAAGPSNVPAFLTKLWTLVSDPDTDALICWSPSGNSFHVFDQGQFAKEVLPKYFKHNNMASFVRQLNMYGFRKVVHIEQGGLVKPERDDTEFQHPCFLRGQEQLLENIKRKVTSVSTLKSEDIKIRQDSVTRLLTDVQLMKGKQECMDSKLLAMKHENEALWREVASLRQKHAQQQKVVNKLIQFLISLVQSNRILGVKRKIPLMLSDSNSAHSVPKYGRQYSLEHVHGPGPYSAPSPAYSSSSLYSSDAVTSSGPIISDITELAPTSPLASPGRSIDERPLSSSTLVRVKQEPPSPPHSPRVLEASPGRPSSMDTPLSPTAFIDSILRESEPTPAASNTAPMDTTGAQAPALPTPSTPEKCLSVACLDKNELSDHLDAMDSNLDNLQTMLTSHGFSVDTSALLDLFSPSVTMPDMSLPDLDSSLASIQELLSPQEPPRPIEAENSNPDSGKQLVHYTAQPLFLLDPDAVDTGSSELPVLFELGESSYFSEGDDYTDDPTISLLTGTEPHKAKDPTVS
# [4] = Luminescence Cell-Based Dose Response HTS to Identify Inhibitors of 5'UTR Stem-Loop Driven Prion Protein mRNA Translation in H4 Neuroglioblastoma Cells. [Related pubchem assays: 1827 (Project Summary), 1813 (Primary HTS)]; assay type: functional
# [5] = inhibitors of SNCA 5'UTR-driven reporter translation, confirmation, H4 neuroglioma cells, luminescence (AID 1988); assay type: functional, cell-based
# [6] = target: T5, Replicative DNA helicase DnaB (Mycobacterium tuberculosis, UniProt P9WMR3); assay: DnaB intein splicing inhibitors, dose response, biochemical, cell-free fluorescence (AID 449749); assay type: functional
# T5 sequence (P9WMR3 whole entry): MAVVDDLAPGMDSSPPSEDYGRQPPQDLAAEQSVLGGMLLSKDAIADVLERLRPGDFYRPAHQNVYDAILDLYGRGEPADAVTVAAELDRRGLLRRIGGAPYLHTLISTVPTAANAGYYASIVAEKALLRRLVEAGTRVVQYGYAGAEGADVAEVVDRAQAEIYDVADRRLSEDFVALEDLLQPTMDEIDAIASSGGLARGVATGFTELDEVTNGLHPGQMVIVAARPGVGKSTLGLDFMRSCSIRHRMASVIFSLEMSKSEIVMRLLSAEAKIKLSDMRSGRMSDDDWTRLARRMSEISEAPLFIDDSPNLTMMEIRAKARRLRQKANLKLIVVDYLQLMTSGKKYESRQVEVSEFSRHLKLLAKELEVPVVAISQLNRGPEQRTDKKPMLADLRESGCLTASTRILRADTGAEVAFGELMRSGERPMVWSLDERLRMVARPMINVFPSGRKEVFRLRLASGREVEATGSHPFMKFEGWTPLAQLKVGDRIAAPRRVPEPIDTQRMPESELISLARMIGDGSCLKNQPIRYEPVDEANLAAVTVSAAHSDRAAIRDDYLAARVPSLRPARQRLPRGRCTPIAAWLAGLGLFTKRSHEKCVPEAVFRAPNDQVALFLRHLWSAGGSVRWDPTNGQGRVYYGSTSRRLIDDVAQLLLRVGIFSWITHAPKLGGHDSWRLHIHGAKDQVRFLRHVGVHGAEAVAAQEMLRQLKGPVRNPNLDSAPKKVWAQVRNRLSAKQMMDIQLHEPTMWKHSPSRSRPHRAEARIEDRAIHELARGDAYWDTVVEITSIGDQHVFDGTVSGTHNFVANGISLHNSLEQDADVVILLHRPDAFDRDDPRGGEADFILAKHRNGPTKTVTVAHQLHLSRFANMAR
# Protein RecA = target: T6, Protein RecA (Mycobacterium tuberculosis, UniProt P9WHJ3); assay: Fluorescence Cell-Free Homogeneous Dose Retest to Identify Inhibitors of RecA-Intein Splicing Activity. [Related pubchem assays (depositor defined):AID2097, AID2223, AID489010, AID492950]; assay type: functional
# T6 sequence (P9WHJ3 whole entry): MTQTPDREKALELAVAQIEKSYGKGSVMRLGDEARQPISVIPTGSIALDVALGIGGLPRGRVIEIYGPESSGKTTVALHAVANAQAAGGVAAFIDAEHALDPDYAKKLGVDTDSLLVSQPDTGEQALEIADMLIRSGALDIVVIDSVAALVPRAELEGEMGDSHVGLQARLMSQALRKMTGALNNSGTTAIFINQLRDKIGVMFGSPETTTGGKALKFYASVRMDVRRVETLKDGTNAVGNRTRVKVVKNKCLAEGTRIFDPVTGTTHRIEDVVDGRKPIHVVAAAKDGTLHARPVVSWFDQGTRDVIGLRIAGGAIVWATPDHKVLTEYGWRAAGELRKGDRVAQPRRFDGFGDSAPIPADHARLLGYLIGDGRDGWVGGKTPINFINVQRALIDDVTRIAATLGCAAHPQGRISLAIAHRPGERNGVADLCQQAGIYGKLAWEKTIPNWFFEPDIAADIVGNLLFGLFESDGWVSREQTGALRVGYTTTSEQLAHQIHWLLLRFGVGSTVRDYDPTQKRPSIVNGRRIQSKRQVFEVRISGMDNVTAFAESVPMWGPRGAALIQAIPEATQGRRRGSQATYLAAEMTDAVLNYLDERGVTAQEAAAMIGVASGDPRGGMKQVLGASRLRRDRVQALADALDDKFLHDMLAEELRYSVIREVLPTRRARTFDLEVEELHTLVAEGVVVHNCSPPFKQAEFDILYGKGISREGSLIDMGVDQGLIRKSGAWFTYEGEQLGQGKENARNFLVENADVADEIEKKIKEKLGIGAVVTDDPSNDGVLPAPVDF
# [7] = target: Luciferin 4-monooxygenase (Photinus pyralis, UniProt P08659); assay: firefly luciferase enzyme inhibitors, dose response, biochemical, luminescence (AID 1891)
# [8] = Luminescence Cell-Based Dose Confirmation HTS to Identify Inhibitors of Platelet Dense Granule Release. [Related pubchem assays: 1663 (Primary HTS), 1678 (Summary of Project)]; assay type: functional
# [9] = system: Streptococcus sp. 'group A'; assay: growth inhibition of control SK(-) GAS strain, dose response, counter-screen for streptokinase expression inhibitor project, luminescence, kanamycin, BacTiterGlo, confirmation (AID 1900); assay type: functional, organism-based
# Streptococcus = assay: Group A Streptococcus viability loss, dose response, counter-screen for streptokinase expression inhibitor project, luminescence, BacTiterGlo (AID 1915); assay type: functional, organism-based;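 note: potency for reduction of bacterial viability or growth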
# [10] = Luminescence Cell-Based Dose Retest to Confirm Inhibitors of Cancer Stem Cells. [Related pubchem assays (depositor defined):AID2717, AID2721]; assay type: functional; conditions: Homo sapiens
# Chain of Luciferin 4-monooxygenase (P08659 whole entry): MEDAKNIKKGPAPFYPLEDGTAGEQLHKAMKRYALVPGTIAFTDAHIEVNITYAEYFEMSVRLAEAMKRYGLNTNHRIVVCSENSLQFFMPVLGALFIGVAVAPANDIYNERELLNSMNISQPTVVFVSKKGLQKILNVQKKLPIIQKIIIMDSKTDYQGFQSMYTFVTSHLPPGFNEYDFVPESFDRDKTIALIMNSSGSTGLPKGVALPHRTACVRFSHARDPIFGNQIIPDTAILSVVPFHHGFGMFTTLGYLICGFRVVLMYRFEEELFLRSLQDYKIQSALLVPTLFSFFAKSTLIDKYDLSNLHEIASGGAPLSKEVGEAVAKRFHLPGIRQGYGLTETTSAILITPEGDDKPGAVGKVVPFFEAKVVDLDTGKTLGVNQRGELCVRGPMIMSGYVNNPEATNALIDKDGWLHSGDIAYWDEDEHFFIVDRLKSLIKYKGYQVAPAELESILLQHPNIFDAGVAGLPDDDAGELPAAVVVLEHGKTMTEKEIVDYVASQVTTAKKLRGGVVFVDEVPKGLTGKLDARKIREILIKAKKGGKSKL
smiles,measurement,setting,value
CCc1nnc(NC(=O)CSc2nnc(COc3cccc(C)c3)o2)s1,IC50,Protein skinhead-1,> 100 µM (inactive)
CC1(C)CC(=O)C2=C(C1)OC(N)=C(C#N)[C@@H]2c1ccccc1[N+](=O)[O-],EC50,[1],22.3 µM (inconclusive)
same,EC50,[2],23.9 µM (active)
O=C(O)c1cc(-c2cccc3ccccc23)nc2ccccc12,EC50,[3],> 195 µM (not active)
same,IC50,Protein skinhead-1,> 100 µM (inactive)
CCN(CC)S(=O)(=O)c1cccc(-c2nnc(SCC(=O)c3cc(C)n(C4CC4)c3C)o2)c1,IC50,Protein skinhead-1,> 100 µM (inactive)
CCn1c(SCC(=O)Nc2ccc(NC(=O)c3cccs3)cc2)nnc1-c1cccnc1,IC50,Protein skinhead-1,> 100 µM (inactive)
c1ccc(CSc2nnc(-c3cccs3)o2)cc1,IC50,Protein skinhead-1,30.2 µM (active)
N#Cc1c(C#N)c(-c2ccccc2)n(-c2ccc(C(=O)O)cc2)c1N,EC50,[1],> 300 µM (not active)
same,EC50,[2],> 300 µM (not active)
Cc1ccc(-c2[nH]ncc2/C=C(\C#N)C(=O)NC2CCCCC2)cc1,EC50,[4],71.5 µM (active)
same,EC50,[5],> 120 µM (not active)
same,IC50,Protein skinhead-1,> 100 µM (inactive)
Oc1nc2ccc(Cl)cc2c(-c2ccccc2)c1SC(=S)N1CCCCC1,AC50,[6],> 380 µM (inactive)
same,EC50,Protein RecA,> 380 µM (inactive)
CCc1ccccc1N1C(=O)NC(=O)/C(=C\c2cc(C)n(C)c2C)C1=O,EC50,[1],> 300 µM (not active)
same,EC50,[2],> 300 µM (inconclusive)
Cc1c(C)n(C)c2ccc(C(=O)NCCN3CCOCC3)cc12,IC50,Protein skinhead-1,> 100 µM (inactive)
O=C(NCc1nnc(S)n1-c1ccc(F)cc1)c1ccc(S(=O)(=O)N2CCOCC2)cc1,IC50,Protein skinhead-1,> 100 µM (inactive)
Brc1ccc(CSc2nnc(-c3cccnc3)o2)cc1,IC50,Protein skinhead-1,54.5 µM (inactive)
Cc1cc(C)n(CC(O)Cn2c(C)c(C)c3ccccc32)n1 (centres undefined),IC50,Protein skinhead-1,> 100 µM (inactive)
Cc1cc(/C=C2/C(=O)NC(=O)N(c3ccc(Br)cc3)C2=O)c(C)n1C,EC50,[1],52.2 µM (active)
same,EC50,[2],53 µM (active)
N#CC1=C(N)C(C#N)(C#N)[C@H](c2ccsc2)[C@H]2COCC=C12,EC50,[1],> 300 µM (not active)
same,EC50,[2],> 300 µM (not active)
O=C(O)c1ccccc1-n1c(-c2ccccc2)cc2c1CCCC2=O,EC50,[1],> 300 µM (not active)
same,EC50,[2],> 300 µM (not active)
CCCc1c(C(=O)NNc2cccc(Cl)c2)cnn1-c1ccccc1,AC50,[6],10.7 µM (active)
same,EC50,Protein RecA,> 380 µM (inactive)
COc1ccc(/C=C2\N=C(C)OC2=O)cc1OC,EC50,[1],> 300 µM (not active)
same,EC50,[2],> 300 µM (not active)
COC(=O)c1c(NC(=O)/C=C/C(=O)O)sc(Cc2ccccc2)c1C,AC50,[6],3.23 µM (active)
same,EC50,Protein RecA,7.93 µM (active)
COc1cc(C(c2c(C)n[nH]c2O)c2c(C)n[nH]c2O)cc(OC)c1OC,AC50,[6],0.313 µM (active)
same,EC50,Protein RecA,0.262 µM (active)
Cc1ccc(S(=O)(=O)NCCC(=O)OCC(=O)NC(=O)c2cccn2C)cc1,EC50,[7],> 112 µM (not active)
same,EC50,[8],> 112 µM (not active)
Nc1cccc2c(O)cccc12,AC50,[6],22.1 µM (active)
same,EC50,Protein RecA,15.5 µM (active)
CC(C)=CCC/C(C)=C/Cc1c(O)ccc(C(=O)/C=C/c2ccc(O)cc2)c1O [XANTHOANGELOL],EC50,[9],1.05 µM (active)
same,EC50,Streptococcus,1.68 µM (active)
same,AC50,[10],9.49 µM (active)
same,AC50,[6],3.19 µM (active)
same,EC50,Protein RecA,88.4 µM (active)

# Reference: ChEMBL document CHEMBL1201862, “PubChem BioAssay data set” (2004)
